This passage reports T/C results from PubChem BioAssay AID200 (DTP/NCI, 2004).

The test system of this assay is B6C3F1 mice, B16 melanoma ip, median survival T/C. Briefly: NCI In Vivo Anticancer Drug Screen. Data for tumor model B16 Melanoma (intraperitoneal) in B6C3F1 mice. Particulars: endpoint: median survival time, higher = longer survival. The procedure, abridged:
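Antitumor effect was judged in mice with transplanted tumors by dividing the treated group's survival measure by that of vehicle controls.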

Setting [1] is: dose: 12.5 mg/kg/injection, schedule: Q01DX009 (ip), vehicle: distilled water + Tween-80.
The mark [2] stands for this setting: dose: 25.0 mg/kg/injection, schedule: Q01DX009 (ip), vehicle: distilled water + Tween-80.
The mark [3] stands for this setting: dose: 25.0 mg/kg/injection, schedule: Q01DX009 (ip), vehicle: saline with Tween-80.
[4] abbreviates: dose: 50.0 mg/kg/injection, schedule: Q01DX009 (ip), vehicle: saline with Tween-80.
[5] abbreviates: dose: 100.0 mg/kg/injection, schedule: Q01DX009 (ip), vehicle: saline with Tween-80.
[6] abbreviates: dose: 12.5 mg/kg/injection, schedule: Q01DX009 (ip), vehicle: saline + alcohol.
[7] abbreviates: dose: 25.0 mg/kg/injection, schedule: Q01DX009 (ip), vehicle: saline + alcohol.
Setting [8] is: dose: 3.12 mg/kg/injection, schedule: Q01DX009 (ip), vehicle: Klucel (hydroxypropylcellulose) (HPC).
[9] abbreviates: dose: 6.25 mg/kg/injection, schedule: Q01DX009 (ip), vehicle: Klucel (hydroxypropylcellulose) (HPC).
[10] abbreviates: dose: 12.5 mg/kg/injection, schedule: Q01DX009 (ip), vehicle: Klucel (hydroxypropylcellulose) (HPC).
The mark [11] stands for this setting: dose: 25.0 mg/kg/injection, schedule: Q01DX009 (ip), vehicle: saline.
[12] abbreviates: dose: 50.0 mg/kg/injection, schedule: Q01DX009 (ip), vehicle: saline.
Setting [13] is: dose: 100.0 mg/kg/injection, schedule: Q01DX009 (ip), vehicle: saline.

Where “and” joins values, the source holds several entries; their conditions need not be identical. Identical values can stand only once. Toxic doses and inconclusive results are not listed.

Consider `CCc1nc(N)nc(N)c1-c1ccc(Cl)c(N=[N+]=[N-])c1`, for which the T/C was 100 % of control under setting [1]; 98 % of control and 102 % of control under setting [2]; 108 % of control (2×) and 109 % of control (dose: 50.0 mg/kg/injection, schedule: Q01DX009 (ip), vehicle: distilled water + Tween-80); 122 % of control (dose: 100.0 mg/kg/injection, schedule: Q01DX009 (ip), vehicle: distilled water + Tween-80); 157 % of control and 169 % of control (dose: 200.0 mg/kg/injection, schedule: Q01DX009 (ip), vehicle: distilled water + Tween-80).
In the case of `ClCCCN1CCN(CCCCl)CC1`, the T/C (dose: 6.25 mg/kg/injection, schedule: Q01DX009 (ip), vehicle: distilled water + alcohol) is 109 % of control and 98 % of control; the T/C (dose: 12.5 mg/kg/injection, schedule: Q01DX009 (ip), vehicle: distilled water + alcohol) was 102 % of control and 104 % of control; the T/C (dose: 25.0 mg/kg/injection, schedule: Q01DX009 (ip), vehicle: distilled water + alcohol) was 108 % of control and 105 % of control; the T/C (dose: 50.0 mg/kg/injection, schedule: Q01DX009 (ip), vehicle: distilled water + alcohol) was 118 % of control and 107 % of control; the T/C (dose: 100.0 mg/kg/injection, schedule: Q01DX009 (ip), vehicle: distilled water + alcohol) is 115 % of control and 118 % of control.
Consider `O=C1c2ccccc2C(=O)c2c3c(cc(NCCNCCO)c21)N(CCO)CCN3`, for which the T/C is, setting by setting: (dose: 25.0 mg/kg/injection, schedule: Q01DX009 (ip), vehicle: DMSO) 108 % of control; (dose: 50.0 mg/kg/injection, schedule: Q01DX009 (ip), vehicle: DMSO) 112 % of control; (dose: 100.0 mg/kg/injection, schedule: Q01DX009 (ip), vehicle: DMSO) 167 % of control.
As to `CCCCC/C(C=C(C#N)C#N)=C/c1ccccc1`, the T/C reads like this: under setting [3], 111 % of control; under setting [4], 106 % of control; under setting [5], 123 % of control.
For `COc1cc([C@@H]2c3cc4c(cc3[C@H](O)[C@H]3COC(=O)[C@H]23)OCO4)cc(OC)c1OC`, the T/C (dose: 0.36 mg/kg/injection, schedule: Q01DX009 (ip), vehicle: Klucel (hydroxypropylcellulose) (HPC)) was 116 % of control; the T/C (dose: 0.6 mg/kg/injection, schedule: Q01DX009 (ip), vehicle: Klucel (hydroxypropylcellulose) (HPC)) is 102 % of control; the T/C (dose: 1.0 mg/kg/injection, schedule: Q01DX009 (ip), vehicle: Klucel (hydroxypropylcellulose) (HPC)) is 107 % of control; the T/C (dose: 1.67 mg/kg/injection, schedule: Q01DX009 (ip), vehicle: Klucel (hydroxypropylcellulose) (HPC)) was 103 % of control; the T/C (dose: 2.0 mg/kg/injection, schedule: Q01DX009 (ip), vehicle: Klucel (hydroxypropylcellulose) (HPC)) was 123 % of control; the T/C (dose: 2.78 mg/kg/injection, schedule: Q01DX009 (ip), vehicle: Klucel (hydroxypropylcellulose) (HPC)) was 114 % of control. Where the note is “dose: 4.0 mg/kg/injection, schedule: Q01DX009 (ip), vehicle: Klucel (hydroxypropylcellulose) (HPC)”, the T/C was 114 % of control.
In the case of `NC1=NC(O)C=C1` (stereo not drawn), the T/C is, setting by setting: (dose: 3.12 mg/kg/injection, schedule: Q01DX009 (ip), vehicle: saline + alcohol) 108 % of control; (dose: 6.25 mg/kg/injection, schedule: Q01DX009 (ip), vehicle: saline + alcohol) 108 % of control; under setting [6], 100 % of control; under setting [7], 104 % of control.
Take `CCC(C)C(=O)O[C@H]1C(=O)O[C@@H]2C[C@H]3C(C)=CC(=O)[C@@H](O)[C@]3(C)[C@H]3[C@@H](O)[C@H](O)[C@@]4(C)OC[C@]32[C@@H]14` (stereo partly drawn): the T/C (dose: 1.0 mg/kg/injection, schedule: Q01DX009 (ip), vehicle: saline + alcohol) is 160 % of control.
Consider `O=C(O)C1CSCN1` (stereo not drawn), for which the T/C was 95 % of control (dose: 0.39 mg/kg/injection, schedule: Q01DX009 (ip), vehicle: Klucel (hydroxypropylcellulose) (HPC)); 99 % of control (dose: 0.78 mg/kg/injection, schedule: Q01DX009 (ip), vehicle: Klucel (hydroxypropylcellulose) (HPC)); 97 % of control (dose: 1.56 mg/kg/injection, schedule: Q01DX009 (ip), vehicle: Klucel (hydroxypropylcellulose) (HPC)); 96 % of control (dose: 1.56 mg/kg/injection, schedule: Q01DX009 (ip), vehicle: saline); 86 % of control under setting [8]; 86 % of control (dose: 3.12 mg/kg/injection, schedule: Q01DX009 (ip), vehicle: saline). In addition, the T/C reads like this: under setting [9], 93 % of control; (dose: 6.25 mg/kg/injection, schedule: Q01DX009 (ip), vehicle: saline) 90 % of control and 107 % of control; under setting [10], 87 % of control; (dose: 12.5 mg/kg/injection, schedule: Q01DX009 (ip), vehicle: saline) 116 % of control and 98 % of control and 102 % of control; under setting [11], 117 % of control and 104 % of control; under setting [12], 110 % of control and 121 % of control. The T/C under setting [13] is 112 % of control and 101 % of control.
For the molecule `CC#CCOCC(O)CCl` (stereo not drawn), the T/C by setting is: (dose: 25.0 mg/kg/injection, schedule: Q01DX009 (ip), vehicle: suspension in saline) 96 % of control; (dose: 50.0 mg/kg/injection, schedule: Q01DX009 (ip), vehicle: suspension in saline) 105 % of control; (dose: 100.0 mg/kg/injection, schedule: Q01DX009 (ip), vehicle: suspension in saline) 106 % of control; (dose: 200.0 mg/kg/injection, schedule: Q01DX009 (ip), vehicle: suspension in saline) 102 % of control.
With `NC(=O)c1cc(Cl)nc2nc(Cl)nc(N)c12`, the T/C reads like this: under setting [3], 92 % of control; under setting [4], 101 % of control; under setting [5], 86 % of control; (dose: 200.0 mg/kg/injection, schedule: Q01DX009 (ip), vehicle: saline with Tween-80) 98 % of control; (dose: 400.0 mg/kg/injection, schedule: Q01DX009 (ip), vehicle: saline with Tween-80) 106 % of control.
As for `COc1cccc2c1C(=O)c1c(O)c3c(c(O)c1C2=O)C[C@@](O)(C(C)=O)C[C@@H]3OC1CC(N(CCO)Cc2ccccc2)C(O)C(C)O1` (stereo partly drawn), the T/C by setting is: (dose: 12.5 mg/kg/injection, schedule: Q01DX001 (ip), vehicle: water) 120 % of control; (dose: 25.0 mg/kg/injection, schedule: Q01DX001 (ip), vehicle: water) 116 % of control.
Take `CSc1nc(N)nc2c1ncn2C1OC(CO)C(O)C1O` (stereo not drawn): the T/C reads like this: under setting [11], 103 % of control; under setting [12], 123 % of control; under setting [13], 112 % of control; (dose: 200.0 mg/kg/injection, schedule: Q01DX009 (ip), vehicle: saline) 97 % of control; (dose: 400.0 mg/kg/injection, schedule: Q01DX009 (ip), vehicle: saline) 101 % of control.
Regarding `NC(Cc1ccc(N(CCCl)Cc2ccccc2)cc1)C(=O)O` (stereo not drawn), the T/C runs as follows: (dose: 0.78 mg/kg/injection, schedule: Q01DX009 (ip), vehicle: distilled water + Tween-80) 99 % of control; (dose: 1.56 mg/kg/injection, schedule: Q01DX009 (ip), vehicle: distilled water + Tween-80) 108 % of control; (dose: 3.12 mg/kg/injection, schedule: Q01DX009 (ip), vehicle: distilled water + Tween-80) 115 % of control and 100 % of control; (dose: 6.25 mg/kg/injection, schedule: Q01DX009 (ip), vehicle: distilled water + Tween-80) 123 % of control and 103 % of control; under setting [1], 110 % of control; under setting [2], 118 % of control.
For the molecule `S=C1NCc2cncnc2N1`, the T/C runs as follows: under setting [8], 108 % of control; under setting [9], 107 % of control; under setting [10], 88 % of control and 102 % of control.
In the case of `O=C(O)CNC(=O)OCC1c2ccccc2-c2ccccc21`, the T/C was 93 % of control (dose: 100.0 mg/kg/injection, schedule: Q01DX009 (ip), vehicle: Klucel (hydroxypropylcellulose) (HPC)); 87 % of control (dose: 200.0 mg/kg/injection, schedule: Q01DX009 (ip), vehicle: Klucel (hydroxypropylcellulose) (HPC)); 86 % of control (dose: 400.0 mg/kg/injection, schedule: Q01DX009 (ip), vehicle: Klucel (hydroxypropylcellulose) (HPC)).
Turning to `CC(C)(C)C(=O)CC(=O)C(F)(F)C(F)(F)C(F)(F)F.CC(C)(C)C(=O)CC(=O)C(F)(F)C(F)(F)C(F)(F)F.CC(C)(C)C(=O)CC(=O)C(F)(F)C(F)(F)C(F)(F)F.[Er]`, the T/C is 105 % of control under setting [6]; 118 % of control under setting [7]; 109 % of control (dose: 50.0 mg/kg/injection, schedule: Q01DX009 (ip), vehicle: saline + alcohol); 111 % of control (dose: 100.0 mg/kg/injection, schedule: Q01DX009 (ip), vehicle: saline + alcohol).
